Reference: the NIST ThermoML archive (doi:10.1021/je050200w)

Tests used:
[1] = 101 kPa, Liquid
[2] = xn = mol fraction of the nth substance listed; details: 101 kPa, Liquid

CCCCCCCCCCCO [1-undecanol]
[1]
Details	mass density [kg/m3]	viscosity [mPa·s]
293.15 K	832.2	17.28
298.15 K	828.8	13.72
303.15 K	825.4	11.52
308.15 K	821.7	9.35
313.15 K	818.6	7.841

CCCCCCCCCCCO [1-undecanol] + CCCCCCCCCCO
[2]
Details	mass density, 293.15 K [kg/m3]	mass density, 298.15 K [kg/m3]	mass density, 303.15 K [kg/m3]	mass density, 308.15 K [kg/m3]	mass density, 313.15 K [kg/m3]	viscosity, 293.15 K [mPa·s]	viscosity, 298.15 K [mPa·s]	viscosity, 303.15 K [mPa·s]	viscosity, 308.15 K [mPa·s]	viscosity, 313.15 K [mPa·s]
x2 = 0	832.2	828.8	825.4	821.7	818.6	17.28	13.72	11.52	9.35	7.841
x2 = 0.1007	832	828.7	825.2	821.6	818.2	16.88	13.52	11.27	9.368	7.805
x2 = 0.1997	831.5	828.1	824.8	821.4	818	16.68	13.31	11.08	9.233	7.778
x2 = 0.2999	831.4	828	824.6	821.2	817.8	16.14	13.23	10.89	9.057	7.655
x2 = 0.3998	831.2	827.8	824.4	821	817.5	16.08	12.88	10.7	8.909	7.579
x2 = 0.4997	831	827.6	824.2	820.8	817.3	15.59	12.79	10.51	8.76	7.452
x2 = 0.5978	830.8	827.4	824	820.6	817.1	15.59	12.58	10.34	8.652	7.323
x2 = 0.6999	830.5	827.1	823.7	820.3	816.9	15.28	12.35	10.14	8.504	7.249
x2 = 0.7989	830.4	827	823.5	820.2	816.7	14.5	12.12	9.958	8.357	7.068
x2 = 0.8995	830.1	826.8	823.3	819.9	816.5	14.76	11.98	9.777	8.185	6.94

CCCCCCCCCCCO [1-undecanol] + CCCCCCCCCO
[2]
Details	mass density, 293.15 K [kg/m3]	mass density, 298.15 K [kg/m3]	mass density, 303.15 K [kg/m3]	mass density, 308.15 K [kg/m3]	mass density, 313.15 K [kg/m3]	viscosity, 293.15 K [mPa·s]	viscosity, 298.15 K [mPa·s]	viscosity, 303.15 K [mPa·s]	viscosity, 308.15 K [mPa·s]	viscosity, 313.15 K [mPa·s]
x2 = 0	832.2	828.8	825.4	821.7	818.6	17.28	13.72	11.52	9.35	7.841
x2 = 0.1002	831.7	828.3	824.9	821.5	818.1	16.58	13.43	11.15	9.247	7.609
x2 = 0.1996	831.3	827.9	824.5	821.1	817.7	16.08	12.83	10.73	8.926	7.373
x2 = 0.3004	830.9	827.5	824.1	820.7	817.3	15.38	12.55	10.37	8.681	7.298
x2 = 0.4001	830.6	827.2	823.8	820.3	816.9	14.91	11.98	9.973	8.333	7.04
x2 = 0.5	830.2	826.8	823.4	819.9	816.5	14.29	11.52	9.577	8.014	6.872
x2 = 0.6002	829.8	826.4	823	819.5	816.1	13.61	11.32	9.2	7.71	6.627
x2 = 0.6994	830.1	826.6	823.2	819.7	816.3	12.84	10.55	8.746	7.333	6.267
x2 = 0.7995	829.1	825.6	822.2	818.8	815.3	12.68	10.35	8.272	7.133	6.138
x2 = 0.8988	–	–	–	818.1	–	–	–	–	6.897	–
x2 = 0.8997	828.4	825	821.5	–	814.6	12.13	9.929	8.195	–	5.93

CCCCCCCCCCCO [1-undecanol] + CCCCCCCCO
[2]
Details	mass density, 293.15 K [kg/m3]	mass density, 298.15 K [kg/m3]	mass density, 303.15 K [kg/m3]	mass density, 308.15 K [kg/m3]	mass density, 313.15 K [kg/m3]	viscosity, 293.15 K [mPa·s]	viscosity, 298.15 K [mPa·s]	viscosity, 303.15 K [mPa·s]	viscosity, 308.15 K [mPa·s]	viscosity, 313.15 K [mPa·s]
x2 = 0	832.2	828.8	825.4	821.7	818.6	17.28	13.72	11.52	9.35	7.841
x2 = 0.1003	831.5	828.1	824.8	821.3	817.8	16.4	13.35	10.95	9.118	7.665
x2 = 0.2001	831	827.6	824.2	820.7	817.3	15.21	12.54	10.36	8.645	7.35
x2 = 0.2998	830.5	827	823.6	820.2	816.8	14.4	11.97	9.808	8.207	6.995
x2 = 0.4001	–	–	822.9	–	–	–	–	9.281	–	–
x2 = 0.4002	829.7	826.3	–	819.5	816	13.8	11.23	–	7.773	6.652
x2 = 0.4999	829	825.6	822.2	818.8	815.3	12.78	10.64	8.745	7.392	6.336
x2 = 0.5998	828.3	824.9	821.5	818.1	814.6	12.19	9.948	8.252	6.989	5.991
x2 = 0.6998	827.7	824.3	820.8	817.4	813.9	10.95	9.276	7.691	6.49	5.615
x2 = 0.8	826.9	823.5	820.1	816.6	813.1	10.24	8.693	7.271	6.137	5.295
x2 = 0.8999	826.2	822.8	819.3	815.8	812.3	9.416	8.002	6.723	5.728	4.957

CCCCCCCCCCO [decan-1-ol]
[1]
Details	mass density [kg/m3]	viscosity [mPa·s]
283.15 K	836.6	22.06
288.15 K	833.3	17.99
293.15 K	829.9	14.39
298.15 K	826.5	11.74
303.15 K	823	9.561
308.15 K	819.6	8
313.15 K	816.3	6.831

CCCCCCCCCCO [decan-1-ol] + CCCCCCCCCCCO
[2], x1 = 1
Details	mass density [kg/m3]	viscosity [mPa·s]
293.15 K	829.9	14.39
298.15 K	826.5	11.74
303.15 K	823	9.561
308.15 K	819.6	8
313.15 K	816.3	6.831

CCCCCCCCCCO [decan-1-ol] + CCCCCCCCCO
[2], x2 = 0
Details	mass density [kg/m3]	viscosity [mPa·s]
283.15 K	836.6	22.06
288.15 K	833.3	17.99
293.15 K	829.9	14.39
298.15 K	826.5	11.74
303.15 K	823	9.561
308.15 K	819.6	8
313.15 K	816.3	6.831

CCCCCCCCCO [nonan-1-ol]
[1]
Details	mass density [kg/m3]	viscosity [mPa·s]
283.15 K	835	17.44
288.15 K	831.5	14.27
293.15 K	828.1	11.63
298.15 K	824.7	9.519
303.15 K	821.3	7.806
308.15 K	817.8	6.604
313.15 K	814.3	5.668

CCCCCCCCCO [nonan-1-ol] + CCCCCCCCCCCO
[2], x1 = 1
Details	mass density [kg/m3]	viscosity [mPa·s]
293.15 K	828.1	11.63
298.15 K	824.7	9.519
303.15 K	821.3	7.806
308.15 K	817.8	6.604
313.15 K	814.3	5.668

CCCCCCCCO [octan-1-ol]
[1]
Details	mass density [kg/m3]	viscosity [mPa·s]
283.15 K	832.1	13.49
288.15 K	828.6	10.87
293.15 K	825.2	8.944
298.15 K	821.9	7.498
303.15 K	818.4	6.273
308.15 K	815	5.342
313.15 K	811.4	4.54

CCCCCCCCO [octan-1-ol] + CCCCCCCCCCCO
[2], x1 = 1
Details	mass density [kg/m3]	viscosity [mPa·s]
293.15 K	825.2	8.944
298.15 K	821.9	7.498
303.15 K	818.4	6.273
308.15 K	815	5.342
313.15 K	811.4	4.54

CCCCCCCCO [octan-1-ol] + CCCCCCCCCCO
[2], x1 = 1
Details	mass density [kg/m3]	viscosity [mPa·s]
283.15 K	832.1	13.49
288.15 K	828.6	10.87
293.15 K	825.2	8.944
298.15 K	821.9	7.498
303.15 K	818.4	6.273
308.15 K	815	5.342
313.15 K	811.4	4.54

CCCCCCCCO [octan-1-ol] + CCCCCCCCCO
[2], x1 = 1
Details	mass density [kg/m3]	viscosity [mPa·s]
283.15 K	832.1	13.49
288.15 K	828.6	10.87
293.15 K	825.2	8.944
298.15 K	821.9	7.498
303.15 K	818.4	6.273
308.15 K	815	5.342
313.15 K	811.4	4.54
